Measured values as given in ChEMBL document CHEMBL1201862, “PubChem BioAssay data set” (2004).
The source made the active and inactive calls.

Key:
[1] = biological target: T1, Short transient receptor potential channel 4 (Mus musculus, UniProt Q9QUQ5); assay: block of DAMGO-driven TRPC4 calcium entry – cell-based, HEK293 TRPC4/mu-opioid, Fluo-4 calcium, dose response (AID 434942); type: functional;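 further: potency of inhibitors blocking the TRPC4 calcium response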
T1 sequence (Q9QUQ5 whole entry): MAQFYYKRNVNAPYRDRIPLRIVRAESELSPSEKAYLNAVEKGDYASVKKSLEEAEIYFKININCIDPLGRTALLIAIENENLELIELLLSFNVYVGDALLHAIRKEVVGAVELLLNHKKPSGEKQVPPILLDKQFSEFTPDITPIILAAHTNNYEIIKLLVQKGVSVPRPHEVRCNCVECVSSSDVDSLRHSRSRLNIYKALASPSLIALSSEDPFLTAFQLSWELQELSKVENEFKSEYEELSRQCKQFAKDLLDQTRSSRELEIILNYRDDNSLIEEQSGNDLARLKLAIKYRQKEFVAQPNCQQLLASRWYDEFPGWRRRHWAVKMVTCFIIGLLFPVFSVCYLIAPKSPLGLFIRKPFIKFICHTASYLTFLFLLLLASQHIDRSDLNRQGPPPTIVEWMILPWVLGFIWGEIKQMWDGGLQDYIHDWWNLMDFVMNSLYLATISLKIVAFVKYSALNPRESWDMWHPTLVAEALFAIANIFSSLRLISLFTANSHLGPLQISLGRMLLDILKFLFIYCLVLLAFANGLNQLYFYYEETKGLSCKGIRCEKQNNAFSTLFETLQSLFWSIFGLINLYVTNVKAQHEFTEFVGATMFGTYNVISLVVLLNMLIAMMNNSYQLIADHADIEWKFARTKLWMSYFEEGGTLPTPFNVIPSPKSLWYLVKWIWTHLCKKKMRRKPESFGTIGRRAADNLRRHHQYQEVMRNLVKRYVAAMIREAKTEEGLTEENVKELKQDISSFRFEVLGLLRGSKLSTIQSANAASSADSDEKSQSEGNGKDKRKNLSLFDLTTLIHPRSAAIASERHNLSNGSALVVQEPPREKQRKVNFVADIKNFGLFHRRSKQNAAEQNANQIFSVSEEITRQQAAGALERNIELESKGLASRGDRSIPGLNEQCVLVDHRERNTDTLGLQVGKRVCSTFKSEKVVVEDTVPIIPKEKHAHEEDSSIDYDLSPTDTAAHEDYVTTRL

cells [2] = type: functional, cell-based
[3] = biological target: Glyceraldehyde-3-phosphate dehydrogenase (Homo sapiens, UniProt P04406)
Glyceraldehyde-3-phosphate dehydrogenase, sequence (P04406 whole entry): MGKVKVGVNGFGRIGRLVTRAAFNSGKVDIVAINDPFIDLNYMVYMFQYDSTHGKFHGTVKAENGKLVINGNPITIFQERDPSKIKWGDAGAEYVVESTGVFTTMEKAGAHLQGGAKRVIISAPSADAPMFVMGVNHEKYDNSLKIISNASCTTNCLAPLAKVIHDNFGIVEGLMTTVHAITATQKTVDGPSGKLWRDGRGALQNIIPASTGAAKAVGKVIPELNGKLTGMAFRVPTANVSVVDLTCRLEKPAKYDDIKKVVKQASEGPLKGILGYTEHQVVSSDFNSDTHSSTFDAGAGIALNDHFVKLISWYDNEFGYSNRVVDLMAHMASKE

cells [4] = type: functional, cell-based; remark: listed apart in the source
HEK293 [5] = assay: NOD2 signaling inhibitors in MDP-stimulated cells, cell-based, uHTS, luminescence (AID 2001); type: functional; settings: Homo sapiens
HEK293 [6] = assay: cells; type: functional, cell-based; settings: Homo sapiens
HEK293 [7] = assay: inhibition of NOD1-driven NF-kB reporter – cell-based, luminescence, uHTS, primary screen (AID 1578); type: functional; settings: Homo sapiens
[8] = biological target: Nucleotide-binding oligomerization domain-containing protein 2 (Homo sapiens, UniProt Q9HC29); assay: inhibition of NOD2-driven NF-kB reporter – cell-based, luminescence, uHTS, HEK293 (AID 1566); type: functional
Nucleotide-binding oligomerization domain-containing protein 2, sequence (Q9HC29 whole entry, the tested form may be a part): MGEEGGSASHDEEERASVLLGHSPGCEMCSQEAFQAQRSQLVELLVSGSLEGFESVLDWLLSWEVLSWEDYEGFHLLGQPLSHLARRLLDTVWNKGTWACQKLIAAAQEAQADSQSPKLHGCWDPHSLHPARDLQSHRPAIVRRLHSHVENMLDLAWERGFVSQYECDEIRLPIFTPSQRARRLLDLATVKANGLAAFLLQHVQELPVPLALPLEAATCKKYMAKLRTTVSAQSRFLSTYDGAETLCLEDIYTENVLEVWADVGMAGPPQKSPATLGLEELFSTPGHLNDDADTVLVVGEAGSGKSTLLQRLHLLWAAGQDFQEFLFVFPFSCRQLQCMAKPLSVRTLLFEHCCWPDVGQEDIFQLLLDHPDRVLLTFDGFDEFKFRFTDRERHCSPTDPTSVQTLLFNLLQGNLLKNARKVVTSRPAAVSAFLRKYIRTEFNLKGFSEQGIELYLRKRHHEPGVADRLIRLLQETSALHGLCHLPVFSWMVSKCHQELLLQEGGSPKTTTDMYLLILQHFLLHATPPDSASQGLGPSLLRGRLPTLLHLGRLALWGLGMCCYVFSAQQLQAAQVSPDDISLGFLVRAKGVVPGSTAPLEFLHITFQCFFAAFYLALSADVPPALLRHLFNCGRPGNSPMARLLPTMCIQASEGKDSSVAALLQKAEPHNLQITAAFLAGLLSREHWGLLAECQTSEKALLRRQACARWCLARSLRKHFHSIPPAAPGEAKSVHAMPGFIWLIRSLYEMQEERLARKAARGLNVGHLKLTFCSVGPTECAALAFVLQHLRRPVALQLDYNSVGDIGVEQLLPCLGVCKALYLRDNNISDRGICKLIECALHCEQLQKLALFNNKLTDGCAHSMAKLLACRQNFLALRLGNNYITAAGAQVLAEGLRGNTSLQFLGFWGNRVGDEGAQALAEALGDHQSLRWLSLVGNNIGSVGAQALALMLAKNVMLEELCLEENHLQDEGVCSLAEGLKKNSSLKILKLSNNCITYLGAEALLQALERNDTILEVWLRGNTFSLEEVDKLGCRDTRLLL

HEK293 [9] = assay: cells; type: functional, cell-based; settings: Homo sapiens; remark: listed apart in the source
HEK293 [10] = assay: cells; type: functional, cell-based; settings: Homo sapiens; remark: listed apart in the source
[11] = Counterscreen for IDE inhibitors: Luminescence-based cell-based high throughput dose response assay to identify compounds that are cytotoxic to HEK cells. [Related pubchem assays: 434962 (Primary screen (IDE inhibitors in singlicate)), 449730 (Counterscreen (Cytotoxicity in triplicate)), 435028 (Confirmation (IDE inhibitors in triplicate)) …; type: functional; settings: HEK293
Insulin-degrading enzyme = biological target: T2, Insulin-degrading enzyme (Homo sapiens, UniProt P14735); assay: Dose Response: Fluorescence polarization-based cell-based high throughput dose response assay for inhibitors of insulin-degrading enzyme (IDE). [Related pubchem assays: 434962 (Primary screen (IDE inhibitors in singlicate)), 449730 (Counterscreen (Cytotoxicity in triplicate)), 435028 (Confirmation (IDE inhibitors in triplicate)), 434984 (Summary …; type: functional
T2 sequence (P14735 whole entry): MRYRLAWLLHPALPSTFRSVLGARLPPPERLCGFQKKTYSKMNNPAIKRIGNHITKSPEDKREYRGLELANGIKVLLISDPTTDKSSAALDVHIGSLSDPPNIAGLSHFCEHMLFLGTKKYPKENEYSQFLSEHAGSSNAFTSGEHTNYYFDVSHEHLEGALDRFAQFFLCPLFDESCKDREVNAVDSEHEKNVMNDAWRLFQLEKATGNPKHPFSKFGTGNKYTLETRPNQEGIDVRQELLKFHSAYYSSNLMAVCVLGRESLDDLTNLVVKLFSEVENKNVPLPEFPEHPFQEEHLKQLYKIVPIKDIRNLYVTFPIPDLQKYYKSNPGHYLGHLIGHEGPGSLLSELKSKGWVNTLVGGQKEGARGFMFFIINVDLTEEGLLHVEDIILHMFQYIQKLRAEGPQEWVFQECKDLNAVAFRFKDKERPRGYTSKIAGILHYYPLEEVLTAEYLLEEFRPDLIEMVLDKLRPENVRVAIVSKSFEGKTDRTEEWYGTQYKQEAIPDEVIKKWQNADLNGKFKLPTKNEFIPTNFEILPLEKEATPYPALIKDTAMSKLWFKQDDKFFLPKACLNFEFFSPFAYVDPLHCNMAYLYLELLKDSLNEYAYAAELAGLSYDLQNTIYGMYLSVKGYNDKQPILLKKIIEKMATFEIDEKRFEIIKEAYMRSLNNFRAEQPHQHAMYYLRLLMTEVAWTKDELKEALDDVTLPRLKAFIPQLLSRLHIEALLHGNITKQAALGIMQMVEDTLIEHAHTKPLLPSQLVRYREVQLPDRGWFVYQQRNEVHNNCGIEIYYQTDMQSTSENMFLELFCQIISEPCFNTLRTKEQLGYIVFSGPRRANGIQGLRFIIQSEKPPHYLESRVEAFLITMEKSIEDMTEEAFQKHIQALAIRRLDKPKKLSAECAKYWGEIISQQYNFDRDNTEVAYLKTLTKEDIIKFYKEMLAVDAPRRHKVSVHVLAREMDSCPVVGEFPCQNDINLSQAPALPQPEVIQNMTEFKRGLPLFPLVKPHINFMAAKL

[12] = alpha-synuclein stem-loop luciferase translation blockers – H4 neuroglioma cells, luminescence, confirmation (AID 1988); type: functional, cell-based
[13] = luciferase reporter signal suppression in cells – H4 neuroglioma cells, luminescence, dose response (AID 1990); type: functional, cell-based
[14] = biological target: T3, Heat shock factor protein 1 (Mus musculus, UniProt P38532); assay: decrease of HSF1-responsive luciferase luminescence – cell-based, NIH3T3, dose retest, confirmation (AID 2382); type: functional;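 further: NIH3T3 fibroblasts with HSF1-driven luciferase reporter stressed by proteasome inhibitor MG132; luminescence from HSF1-driven luciferase expression after 8 hours of MG132 stress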
T3 sequence (P38532 whole entry): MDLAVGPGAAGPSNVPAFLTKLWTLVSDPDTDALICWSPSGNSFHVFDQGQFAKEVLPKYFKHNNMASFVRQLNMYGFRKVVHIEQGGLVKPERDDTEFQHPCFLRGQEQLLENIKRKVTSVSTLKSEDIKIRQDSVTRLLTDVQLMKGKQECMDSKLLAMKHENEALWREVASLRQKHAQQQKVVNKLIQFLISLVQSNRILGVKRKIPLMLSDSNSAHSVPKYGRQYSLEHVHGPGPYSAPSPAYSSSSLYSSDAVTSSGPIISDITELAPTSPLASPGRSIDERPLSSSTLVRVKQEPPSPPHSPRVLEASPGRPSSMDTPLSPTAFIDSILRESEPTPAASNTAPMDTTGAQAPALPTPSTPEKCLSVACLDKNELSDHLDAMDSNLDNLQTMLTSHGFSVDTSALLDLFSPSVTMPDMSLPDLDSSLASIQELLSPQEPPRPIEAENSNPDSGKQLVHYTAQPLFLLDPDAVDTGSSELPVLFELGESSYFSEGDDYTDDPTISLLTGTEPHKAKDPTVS

[15] = biological target: T4, Microphthalmia-associated transcription factor (Homo sapiens, UniProt O75030); assay: reducers of TRPM1 reporter luminescence, concentration series – cell-based, SK-MEL-5, cherry-picked, set 3, MITF inhibitor project, dose response (AID 493073); type: functional;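 further: SK-MEL-5 melanoma cells with luciferase driven by the MITF target TRPM1 promoter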
T4 sequence (O75030 whole entry): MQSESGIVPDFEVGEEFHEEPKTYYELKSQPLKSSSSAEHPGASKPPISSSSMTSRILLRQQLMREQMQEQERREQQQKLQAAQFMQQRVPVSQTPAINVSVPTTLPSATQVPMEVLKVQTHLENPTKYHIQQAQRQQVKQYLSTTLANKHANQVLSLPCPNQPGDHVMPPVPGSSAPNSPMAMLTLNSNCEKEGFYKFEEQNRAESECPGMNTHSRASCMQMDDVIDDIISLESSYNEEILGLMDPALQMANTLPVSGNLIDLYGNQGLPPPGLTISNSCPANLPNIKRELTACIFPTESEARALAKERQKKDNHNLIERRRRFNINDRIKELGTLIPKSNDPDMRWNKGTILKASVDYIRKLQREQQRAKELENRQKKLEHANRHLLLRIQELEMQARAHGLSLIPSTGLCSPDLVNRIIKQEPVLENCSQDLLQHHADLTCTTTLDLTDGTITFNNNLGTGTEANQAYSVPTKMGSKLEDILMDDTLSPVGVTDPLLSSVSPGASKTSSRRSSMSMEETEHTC

[16] = biological target: FAD-linked sulfhydryl oxidase ALR (Homo sapiens, UniProt P55789); assay: ALR-catalysed DTT oxidation blockers – biochemical, H2O2 detection, luminescence, cherry-pick, dose response (AID 493248)
FAD-linked sulfhydryl oxidase ALR, sequence (P55789 whole entry): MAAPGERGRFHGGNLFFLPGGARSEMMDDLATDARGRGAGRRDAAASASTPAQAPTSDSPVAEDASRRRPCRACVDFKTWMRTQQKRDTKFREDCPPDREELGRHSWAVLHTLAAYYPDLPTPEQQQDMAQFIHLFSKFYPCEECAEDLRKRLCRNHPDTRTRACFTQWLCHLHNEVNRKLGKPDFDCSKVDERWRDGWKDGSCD

Cytochrome P450 2C9 = Cytochrome P450 2C9 (Homo sapiens, UniProt P11712)
Cytochrome P450 2C9, sequence (P11712 whole entry): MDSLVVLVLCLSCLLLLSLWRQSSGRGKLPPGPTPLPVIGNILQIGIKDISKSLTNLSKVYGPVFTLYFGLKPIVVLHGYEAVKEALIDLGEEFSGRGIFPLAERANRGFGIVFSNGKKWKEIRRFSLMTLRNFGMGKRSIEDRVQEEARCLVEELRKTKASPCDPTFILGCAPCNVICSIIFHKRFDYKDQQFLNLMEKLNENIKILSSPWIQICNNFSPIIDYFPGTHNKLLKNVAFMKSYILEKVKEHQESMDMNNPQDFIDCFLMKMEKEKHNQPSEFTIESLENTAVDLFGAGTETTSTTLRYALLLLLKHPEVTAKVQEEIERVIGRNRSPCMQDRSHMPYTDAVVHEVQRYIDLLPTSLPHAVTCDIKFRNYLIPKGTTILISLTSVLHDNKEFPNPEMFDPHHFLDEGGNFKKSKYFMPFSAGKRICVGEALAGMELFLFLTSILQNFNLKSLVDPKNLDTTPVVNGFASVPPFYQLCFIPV

Cytochrome P450 3A4 = Cytochrome P450 3A4 (Homo sapiens, UniProt P08684); settings: Potency;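 further: confirmatory qHTS run detecting inhibitors and substrates of CYP3A4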
Cytochrome P450 3A4, sequence (P08684 whole entry): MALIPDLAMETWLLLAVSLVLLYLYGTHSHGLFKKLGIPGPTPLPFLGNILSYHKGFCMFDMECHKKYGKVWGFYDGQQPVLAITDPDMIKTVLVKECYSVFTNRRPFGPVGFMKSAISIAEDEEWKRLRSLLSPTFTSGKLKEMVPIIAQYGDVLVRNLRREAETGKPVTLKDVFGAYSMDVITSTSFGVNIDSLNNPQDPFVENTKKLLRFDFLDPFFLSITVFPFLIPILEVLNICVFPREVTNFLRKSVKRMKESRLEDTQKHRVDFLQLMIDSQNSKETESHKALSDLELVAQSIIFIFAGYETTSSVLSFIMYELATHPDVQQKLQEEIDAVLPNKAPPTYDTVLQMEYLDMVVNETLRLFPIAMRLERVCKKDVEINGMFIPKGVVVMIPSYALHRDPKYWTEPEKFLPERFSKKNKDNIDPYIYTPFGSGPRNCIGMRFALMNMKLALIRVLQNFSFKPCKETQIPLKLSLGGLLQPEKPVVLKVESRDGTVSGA

CCCn1c(=O)c2ccccc2n2c(SCCOc3ccc(C)cc3)nnc12
EC50 [1]: 1.68 µM (active)

O=C(O)c1ccc2cccc(O)c2n1
EC50 (cells [2]): > 350 µM (not active)
IC50 [3]: > 100 µM (not active)
EC50 (cells [4]): > 350 µM (not active)

COc1ccccc1-c1nc(C#N)c(N2CCN(c3cccc(Cl)c3)CC2)o1
IC50 (HEK293 [5]): 17.4 µM (inactive)
IC50 (HEK293 [6]): 18.5 µM (active)
EC50 (HEK293 [7]): 8.65 µM (active)
EC50 [8]: 11.2 µM (active)
IC50 (HEK293 [9]): > 20 µM (inactive)
IC50 (HEK293 [10]): > 20 µM (inactive)

Cc1ccc(NC(=O)Cc2cc(C(=O)O)c3ccccc3n2)c(C)c1
IC50 (HEK293 [5]): 8.76 µM (inactive)
IC50 (HEK293 [6]): 11.7 µM (active)
EC50 (HEK293 [7]): 7.04 µM (active)
EC50 [8]: 6.77 µM (active)
IC50 (HEK293 [9]): > 20 µM (inactive)
IC50 (HEK293 [10]): > 20 µM (inactive)

COCC(C)n1c(C)cc(C(=O)COc2ccc(C)nc2[N+](=O)[O-])c1C (stereo unspecified)
IC50 (HEK293 [5]): > 20 µM (inactive)
IC50 (HEK293 [6]): 6.88 µM (active)
EC50 (HEK293 [7]): > 20 µM (inactive)
EC50 [8]: 16.7 µM (active)
IC50 (HEK293 [9]): > 20 µM (inactive)
IC50 (HEK293 [10]): > 20 µM (inactive)

O=C(O)c1ccc(OCc2ccc(C(=O)O)o2)cc1
IC50 [3]: > 100 µM (not active)

CC1CCc2c(sc3ncnc(SCC(=O)Nc4ccc(C(=O)O)cc4)c23)C1 (stereo unspecified)
EC50 [1]: 6.68 µM (active)

Cc1ccc(-c2cc(C(=O)Nc3ccc(S(=O)(=O)Nc4ncccn4)cc3)[nH]n2)c(O)c1C
IC50 [11]: > 55.7 µM (not active)
IC50 (Insulin-degrading enzyme): 17.7 µM (not active)

O=C(Nc1ccc(Cl)cn1)c1ccc(Br)c(S(=O)(=O)N2CCCCC2)c1
IC50 (HEK293 [5]): 9.77 µM (active)
IC50 (HEK293 [6]): 7.73 µM (active)
EC50 (HEK293 [7]): 9.56 µM (active)
EC50 [8]: > 20 µM (inactive)
IC50 (HEK293 [9]): 18.7 µM (active)
IC50 (HEK293 [10]): > 20 µM (inactive)

CN(C)c1ccc(/C=C2\SC(=O)N(CCc3nnc(N)s3)C2=O)cc1
EC50 [12]: 4.74 µM (active)
IC50 [11]: 47.8 µM (not active)
IC50 (Insulin-degrading enzyme): > 55.9 µM (not active)
EC50 [13]: 8.39 µM (inconclusive)
EC50 [14]: 6.52 µM (inconclusive)
AC50 [15]: 2.54 µM (active)
AC50 [16]: 1.87 µM (active)

CCOC(=O)C1C(=O)NC(SCC(N)=O)=C(C#N)C1c1ccccc1OCC (stereo unspecified)
IC50 [11]: > 55.7 µM (not active)
IC50 (Insulin-degrading enzyme): > 6.21 µM (active)

O=S(=O)(CC(O)COc1ccccc1Cl)c1ccccc1 (stereo unspecified)
AC50 (Cytochrome P450 2C9): inconclusive

O=C(c1cccc(C(F)(F)F)c1)C1CCCN(Cc2ccccc2O)C1 (stereo unspecified)
EC50 [1]: 2.37 µM (active)

COc1ccc(CNC(=O)c2ccc3ccccc3n2)cc1OC
IC50 (HEK293 [5]): > 20 µM (inactive)
IC50 (HEK293 [6]): 14.5 µM (active)
EC50 (HEK293 [7]): 7.83 µM (active)
EC50 [8]: 11.7 µM (active)
IC50 (HEK293 [9]): > 20 µM (inactive)
IC50 (HEK293 [10]): > 20 µM (inactive)

Cc1ccccc1CN1CCCC(C(=O)Nc2ccccc2Oc2cccnc2)C1 (stereo unspecified)
EC50 [1]: 5.31 µM (active)

COc1ccccc1-c1oc2ccccc2c(=O)c1OC
AC50 (Cytochrome P450 3A4): 20 µM (inconclusive)

CN(C)C(=O)c1ccc(-n2nc(C(F)(F)F)c3c2CCCC3)cc1
AC50 (Cytochrome P450 2C9): inconclusive

O=C1CN=C(Nc2cccc(C(F)(F)F)c2)N1C1CCCC1
EC50 [1]: 6.68 µM (active)

COc1cc(-c2oc3cc(O)ccc3c(=O)c2O)ccc1O [GERALDOL]
AC50 (Cytochrome P450 3A4): 10 µM (inconclusive)

CC(C(=O)O)c1ccc(N2Cc3ccccc3C2=O)cc1 (stereo unspecified) [INDOPROFEN]
AC50 (Cytochrome P450 3A4): 39.8 µM (inconclusive)

CNC(=O)N(C)c1nnc(C(C)(C)C)s1 [TEBUTHIURON]
AC50 (Cytochrome P450 3A4): 12.6 µM (inconclusive)
